Drawing on patent US9481654B2, “Compositions and methods for inhibition of the JAK pathway” (Rigel Pharmaceuticals, Inc., priority 2006, dated 2016), this text covers IC50 for 24 molecules.

Each structure is given as a SMILES string. Structures can show the parent of a compound that is named as a salt.

What is called IC50 is the midpoint of a concentration-inhibition curve.

For the experiment, the system named is IL-4 stimulated CD23 upregulation in human Ramos B cells (JAK-1/JAK-3, Stat-6). The experiment in a line: Assay for Ramos B-Cell Line Stimulated with IL-4 (CD23 upregulation, FACS). Format: cell-based. From the text: One means of assaying for such inhibition is detection of the effect of the 2,4-pyrimidinediamine compounds on the upregulation of downstream gene products. In the Ramos/IL4 assay, B-cells are stimulated with the cytokine Interleukin-4 (IL-4) leading to the activation of the JAK/Stat pathway through phosphorylation of the JAK family kinases, JAK1 and JAK3, which in turn phosphorylate and activate the transcription factor Stat-6. […] To study the effect of inhibitors (e.g., the 2,4-substituted pyrimindinediamine compounds described herein) on the JAK1 and JAK3 kinases, human Ramos B cells are stimulated with human IL-4. 20 to 24 hours post stimulation, cells are stained for upregulation of CD23 and analyzed using flow cytometry (FACS).
B-cells stimulated with cytokine Interleukin-4 (IL-4) activate the JAK/Stat pathway through phosphorylation of the JAK family kinases, JAK-1 and JAK-3, which in turn phosphorylate and activate the transcription factor Stat-6. […] To study the effect of inhibitors on the JAK family kinases, human Ramos B cells are stimulated with human IL-4.
Cells were maintained at a density of 3.5×10^5. The day before the experiment, Ramos B-cells were diluted to 3.5×10^5 cells/mL to ensure that they were in a logarithmic growth phase.
Cells were spun down and suspended in RPMI with 5% serum. 5×10^4 cells were used per point in a 96-well tissue culture plate. Cells were pre-incubated with compound or DMSO (Sigma-Aldrich, St. Louis, Mo., Cat No. D2650) vehicle control for 1 hour in a 37° C. incubator. Cells were then stimulated with IL-4 (Peprotech Inc., Rocky Hill, N.J., Cat No. 200-04) for a final concentration of 50 units/mL for 20-24 hours. […] Detection was performed using a BD LSR I System Flow Cytometer, purchased from Becton Dickinson Biosciences of San Jose, Calif.

[1] abbreviates: Table III Example 3, sodium salt.

Consider `CCC(=O)NS(=O)(=O)c1cccc(Nc2ncc(F)c(Nc3ccc(CNS(=O)(=O)C4CC4)cc3)n2)c1` [Compound I-57, N4-(4-cyclopropylsulfonylaminomethyl)phenyl-5-fluoro-N2-(3-propionylaminosulfonyl)phenyl-2,4-pyrimidinediamine], for which, under “Table III Example 3”, it took 12300 nM to reach half-maximal inhibition (IC50).

Consider `CCC(=O)NS(=O)(=O)c1cccc(Nc2ncc(F)c(Nc3ccc(CN(C(=O)CC)S(=O)(=O)C4CC4)cc3)n2)c1` [Compound I-58, N4-[4-(N-cyclopropylsulfonyl-N-propionyl)aminomethyl]phenyl-5-fluoro-N2-(3-propionylaminosulfonyl)phenyl-2,4-pyrimidinediamine], for which, for the setting “Table III Example 3”, inhibition was half-maximal at 11100 nM (IC50).

In the case of `CCC(=O)NS(=O)(=O)c1cc(Nc2ncc(F)c(Nc3ccc(CNS(=O)(=O)C4CC4)cc3)n2)ccc1C` [Compound I-59, N4-(4-cyclopropylsulfonylaminomethyl)phenyl-5-fluoro-N2-(4-methyl-3-propionylaminosulfonyl)phenyl-2,4-pyrimidinediamine], the midpoint of inhibition (Table III Example 3), the IC50, lay at 6500 nM.

As to `CCC(=O)NS(=O)(=O)c1cc(Nc2ncc(F)c(Nc3ccc(CN(C(=O)CC)S(=O)(=O)C4CC4)cc3)n2)ccc1C` [Compound I-60, N4-[4-(N-cyclopropylsulfonyl-N-propionyl)aminomethyl]phenyl-5-fluoro-N2-(4-methyl-3-propionylaminosulfonyl)phenyl-2,4-pyrimidinediamine], under “Table III Example 3”, the IC50 was 7080 nM.

Turning to `CCC(=O)NS(=O)(=O)c1cccc(Nc2ncc(F)c(Nc3ccc(CNS(=O)(=O)C4CC4)cc3)n2)c1` [Compound I-61, N4-(4-cyclopropylsulfonylaminomethyl)phenyl-5-fluoro-N2-(3-propionylaminosulfonyl)phenyl-2,4-pyrimidinediamine sodium salt], the IC50 under setting [1] was found to be 18900 nM.

Turning to `CCC(=O)NS(=O)(=O)c1cccc(Nc2ncc(F)c(Nc3ccc(CN(C(=O)CC)S(=O)(=O)C4CC4)cc3)n2)c1` [Compound I-62, N4-[4-(N-cyclopropylsulfonyl-N-propionyl)aminomethyl]phenyl-5-fluoro-N2-(3-propionylaminosulfonyl)phenyl-2,4-pyrimidinediamine sodium salt], the IC50 under setting [1] came out at 10700 nM.

Consider `CCC(=O)NS(=O)(=O)c1cc(Nc2ncc(F)c(Nc3ccc(CNS(=O)(=O)C4CC4)cc3)n2)ccc1C` [Compound I-63, N4-(4-cyclopropylsulfonylaminomethyl)phenyl-5-fluoro-N2-(4-methyl-3-propionylaminosulfonyl)phenyl-2,4-pyrimidinediamine sodium salt], for which the IC50 under setting [1] was determined as 9450 nM.

Take `CCC(=O)NS(=O)(=O)c1cc(Nc2ncc(F)c(Nc3ccc(CN(C(=O)CC)S(=O)(=O)C4CC4)cc3)n2)ccc1C` [Compound I-64, N4-[4-(N-cyclopropylsulfonyl-N-propionyl)aminomethyl]phenyl-5-fluoro-N2-(4-methyl-3-propionylaminosulfonyl)phenyl-2,4-pyrimidinediamine sodium salt]: under setting [1], the IC50 amounted to 4270 nM.

Where the note is “Table III Example 3”, `CCC(=O)NS(=O)(=O)c1ccc(Nc2ncc(C)c(Nc3ccc(CN(C(=O)CC)S(=O)(=O)C4CC4)cc3)n2)cc1` [Compound I-77, N4-[4-(N-cyclopropylsulfonyl-N-propionyl)aminomethyl]phenyl-5-methyl-N2-(4-propionylaminosulfonyl)phenyl-2,4-pyrimidinediamine] registered an IC50 of 1230 nM.

Take `CCC(=O)NS(=O)(=O)c1ccc(Nc2ncc(C)c(Nc3ccc(CNS(=O)(=O)C4CC4)cc3)n2)cc1` [Compound I-88, N4-(4-cyclopropylsulfonylaminomethyl)phenyl-5-methyl-N2-(4-propionylaminosulfonyl)phenyl-2,4-pyrimidinediamine sodium salt]: the IC50 under setting [1] was found to be 59.9 nM.

The molecule `CCC(=O)NS(=O)(=O)c1ccc(Nc2ncc(C)c(Nc3ccc(CN(C(=O)CC)S(=O)(=O)CC)cc3)n2)cc1` [Compound I-91, N4-[4-(N-ethylsulfonyl-N-propionyl)aminomethyl]phenyl-5-methyl-N2-(4-propionylaminosulfonyl)phenyl-2,4-pyrimidinediamine] displayed an IC50 (Table III Example 3) of 1290 nM.

In the case of `CCC(=O)NS(=O)(=O)c1ccc(Nc2ncc(C)c(Nc3ccc(CN(C(=O)CC)S(=O)(=O)CC)cc3)n2)cc1` [Compound I-92, N4-[4-(N-ethylsulfonyl-N-propionyl)aminomethyl]phenyl-5-methyl-N2-(4-propionylaminosulfonyl)phenyl-2,4-pyrimidinediamine sodium salt], the concentration for half-maximal inhibition (IC50) under setting [1] came out at 960 nM.

For the molecule `CCC(=O)NS(=O)(=O)c1cccc(Nc2ncc(C)c(Nc3cccc(CN(C(=O)CC)S(=O)(=O)C4CC4)c3)n2)c1` [Compound I-93, N4-[3-(N-cyclopropylsulfonyl-N-propionyl)aminomethyl]phenyl-5-methyl-N2-(3-propionylaminosulfonyl)phenyl-2,4-pyrimidinediamine], under “Table III Example 3”, the IC50 worked out at 2810 nM.

In the case of `CCC(=O)NS(=O)(=O)c1cccc(Nc2ncc(C)c(Nc3cccc(CN(C(=O)CC)S(=O)(=O)C4CC4)c3)n2)c1` [Compound I-94, N4-[3-(N-cyclopropylsulfonyl-N-propionyl)aminomethyl]phenyl-5-methyl-N2-(3-propionylaminosulfonyl)phenyl-2,4-pyrimidinediamine sodium salt], under setting [1], the IC50 amounted to 2500 nM.

`CCOC(=O)N(CC)S(=O)(=O)c1cccc(Nc2ncc(C)c(Nc3cccc(CNS(=O)(=O)C4CC4)c3)n2)c1` [Compound I-130, N4-(3-cyclopropylsulfonylaminomethyl)phenyl-N2-[3-(N-ethoxycarbonyl-N-ethyl)aminosulfonyl]phenyl-5-methyl-2,4-pyrimidinediamine] gave an IC50 (Table III Example 3) of 544 nM.

As for `Cc1cnc(Nc2cccc(S(=O)(=O)NC(=O)CN)c2)nc1Nc1cccc(CNS(=O)(=O)C2CC2)c1` [Compound I-131, N2-[3-N-(2-amino-1-oxoethyl)aminosulfonyl]phenyl-N4-(3-cyclopropylsulfonylaminomethyl)phenyl-5-methyl-2,4-pyrimidinediamine], inhibition (Table III Example 3) was half-maximal at 557 nM (IC50).

With `Cc1cnc(Nc2cccc(S(=O)(=O)NC(=O)[C@@H](N)Cc3ccccc3)c2)nc1Nc1cccc(CNS(=O)(=O)C2CC2)c1` [Compound I-132, N2-[3-N-(L-Phe)aminosulfonyl]phenyl-N4-(3-cyclopropylsulfonylaminomethyl)phenyl-5-methyl-2,4-pyrimidinediamine hydrogen chloride salt], the IC50 (Table III Example 3) turned out to be 594 nM.

Molecule `Cc1cnc(Nc2cccc(S(=O)(=O)NC(=O)[C@@H](N)Cc3ccccc3)c2)nc1Nc1cccc(CNS(=O)(=O)C2CC2)c1` [Compound I-134, N2-[3-N-(L-Phe)aminosulfonyl]phenyl-N4-(3-cyclopropylsulfonylaminomethyl)phenyl-5-methyl-2,4-pyrimidinediamine] came in with an IC50 (Table III Example 3) of 751 nM.

In the case of `Cc1cnc(Nc2cccc(S(=O)(=O)NC(=O)[C@H](Cc3ccccc3)NC(=O)OCc3ccccc3)c2)nc1Nc1cccc(CNS(=O)(=O)C2CC2)c1` [Compound I-135, N2-[3-N-(Cbz-L-Phe)aminosulfonyl]phenyl-N4-(3-cyclopropylsulfonylaminomethyl)phenyl-5-methyl-2,4-pyrimidinediamine sodium salt], the IC50 under setting [1] stood at 1000 nM.

Where the note is “Table III Example 3”, `CCC(=O)NS(=O)(=O)c1cccc(Nc2ncc(C)c(Nc3cccc(CNS(=O)(=O)C4CC4)c3)n2)c1` [Compound I-136, N4-(3-cyclopropylsulfonylaminomethyl)phenyl-5-methyl-N2-(3-propionylaminosulfonyl)phenyl-2,4-pyrimidinediamine] displayed an IC50 of 1630 nM.

For `CCC(=O)NS(=O)(=O)c1cccc(Nc2ncc(C)c(Nc3cccc(CNS(=O)(=O)C4CC4)c3)n2)c1` [Compound I-137, N4-(3-cyclopropylsulfonylaminomethyl)phenyl-5-methyl-N2-(3-propionylaminosulfonyl)phenyl-2,4-pyrimidinediamine sodium salt], the IC50 under setting [1] was 1910 nM.

Under “Table III Example 3”, `Cc1cnc(Nc2cccc(S(=O)(=O)N[C@H](C(=O)O)C(C)C)c2)nc1Nc1cccc(CNS(=O)(=O)C2CC2)c1` [Compound I-138, N2-[3-N-(L-Val)aminosulfonyl]phenyl-N4-(3-cyclopropylsulfonylaminomethyl)phenyl-5-methyl-2,4-pyrimidinediamine] gave an IC50 of 2380 nM.

Molecule `Cc1cnc(Nc2cccc(S(=O)(=O)NC(=O)[C@H](Cc3ccccc3)NC(=O)OCc3ccccc3)c2)nc1Nc1cccc(CNS(=O)(=O)C2CC2)c1` [Compound I-139, N2-[3-N-(Cbz-L-Phe)aminosulfonyl]phenyl-N4-(3-cyclopropylsulfonylaminomethyl)phenyl-5-methyl-2,4-pyrimidinediamine] displayed an IC50 (Table III Example 3) of 3320 nM.

For the molecule `Cc1cnc(Nc2cccc(S(=O)(=O)NC(=O)CNC(=O)OC(C)(C)C)c2)nc1Nc1cccc(CNS(=O)(=O)C2CC2)c1` [Compound I-140, N2-{3-N-[2-(t-butoxycarbonylamino)-1-oxoethyl]aminosulfonyl}phenyl-N4-(3-cyclopropylsulfonylaminomethyl)phenyl-5-methyl-2,4-pyrimidinediamine], under “Table III Example 3”, 3940 nM corresponded to half-maximal inhibition (IC50).
